Reference: patent US8425968B2, “Beverage preservative system containing pimaricin-cyclodextrin complex” (PepsiCo., Inc., priority 2009, dated 2013)
Values after ≈ are worked out from the molar mass of the structure shown.

Legend:
bio-indicator mold [1] = conditions: reported by the manufacturer of DMDC; cited from earlier work
[2] = tested on: Aspergillus (Pepsi Isolate); test: 16 week mold spore challenge MIC in beverage; assay type: cell-based, Aspergillus niger; conditions: pH 3.4, read-out: 16 week incubation MIC (ppm)
Text: (§1) A 2% fruit juice based non-carbonated beverage of pH 3.4 and about 12 Brix was formed by combining the following ingredients.
(§2) The preparation of beverage was divided into two aliquots.
(§3) Each of 24 such preparations was then divided equally across 8 separate tubes making for 192 samples. […] The tubes were sealed in a manner that prohibits moisture evaporation.
(§4) The mold spores employed were obtained from the following organisms. Aspgergillus niger isolate of Pepsi; ATCC strain 90900 (Talaromyces spectabilis), ATCC strain 48441 (Pencillium galbrum), ATCC 24088 (Byssochlamys fulva), ATCC 96468 (Neosartorva fischeri) ATCC strain 96463 (Talaromyces flavus) and ATCC strain ATCC 10512 (Talaromyces flavus var. flavus). Each spore type was present at 20 spores per milliliter.

[3] = tested on: Penicillium glabrum ATCC 48441; test: 16 week mold spore challenge MIC in beverage; assay type: cell-based; conditions: ATCC48441, pH 3.4, read-out: 16 week incubation MIC (ppm)
Text: as §1, §2, §3, §4

[4] = tested on: Talaromyces spectabilis ATCC 90900; test: 16 week mold spore challenge MIC in beverage; assay type: cell-based; conditions: Paecilomyces variotii, ATCC90900, pH 3.4; read-out: 16 week incubation MIC (ppm)
Text: as §1, §2, §3, §4

[5] = purportedly; cited from earlier work
[6] = 25° C., pH approximately 6.4; cited from earlier work
physchem = assay type: physicochemical
[7] = tested on: Byssochlamys fulva ATCC 24088; test: 16 week mold spore challenge MIC in beverage; assay type: cell-based; conditions: Paecilomyces fulvus, ATCC 10099 / ATCC 24088, pH 3.4; read-out: 16 week incubation MIC (ppm)
Text: as §2, §3, §4
(§5) The second aliquot of beverage is identical to the 1st aliquot except for the presence of cyclodextrin-pimaricin complex. […] Each of 36 such preparations was then divided equally across 8 separate tubes making for 288 samples. […] The tubes were sealed in a manner that prohibits moisture evaporation.
(§6) The mold spores employed were obtained from the following organisms Paecilomyces puntoni (Pepsi isolate D3), ATCC 36614 (Byssochlamys nieva) ATCC 24088 (Byssochlamys fulva), ATCC 96468 (Neosartorya fischeri) ATCC strain 96463 (Talaromyces flavus) and ATCC strain ATCC 10512 (Talaromyces flavus var. flavus). Each spore type was present initially at 20 spores per milliliter of product. Spores for Byssochlamys nieva were developed at both 25° C. on Potato Dextrose and 30° C. on Malt Extract in order to ensure some variation in the ratio of asci (ascospores) to conidiospores. […]
(§7) One sample remained un-inoculated and served as a negative control. […] These samples served as the positive controls in this test. […]
(§8) After inoculation with spores from various mold, samples were incubated at 25-27° C. for a period of 16 weeks before.
(§9) As outlined previously, two separate aliquots of beverage were formulated, one containing Pimaricin in complex with g-cyclodextrin and one without. Both aliquots contained 30 ppm Cinnamic acid.

[8] = tested on: Talaromyces flavus ATCC 96463; test: 16 week mold spore challenge MIC in beverage; assay type: cell-based; conditions: ATCC96463, pH 3.4, read-out: 16 week incubation MIC (ppm)
Text: as §2, §3, §4, §5, §6, §7, §8, §9

[9] = tested on: Neosartorya fischeri ATCC 96468; test: 16 week mold spore challenge MIC in beverage; assay type: cell-based; conditions: Aspergillus fischeri, ATCC96468, pH 3.4; read-out: 16 week incubation MIC (ppm)
Text: as §2, §3, §4, §5, §6, §7, §8, §9

[10] = tested on: Talaromyces flavus var. flavus ATCC 10512; test: 16 week mold spore challenge MIC in beverage; assay type: cell-based; conditions: ATCC10512, pH 3.4, read-out: 16 week incubation MIC (ppm)
Text: as §2, §3, §4, §5, §6, §7, §8, §9

bio-indicator mold [11] = test: Preservation of beverage for 16 weeks against the array of bio-indicator / spoilage organisms; assay type: cell-based
Text: As used herein, the terms “preserve,” “preservative,” and “preservation” refer to a food or beverage product protected against or a composition able to stop or completely prevent spoilage of a product that is the result of the growth of spoilage microorganisms for a period of at least 16 weeks. This period is in keeping with the time required to transport a beverage product from location of manufacture, through distribution channels, into the hand of the consumer. Absence of spoilage is noted by absence any evidence of growth of spoilage organisms (turbidity, viable count, direct microscopic count or other standard methods of enumeration) and by the absence of any discernable change in the product attributes that could be routinely attributed to metabolism of spoilage organisms.
as §3, §5
An apple juice based beverage was prepared to contain 30 ppm EDTA (0.003%) as shown below. The beverage was divided into two aliquots. […]

Row | MIC [2] | MIC [3] | MIC [4] | solubility (physchem; 4 °C, pH 3.4, aqueous buffer, thermodynamic from solid) | solubility at 24 h (physchem; 25 °C, pH 3.4, aqueous buffer, thermodynamic from solid) | solubility limit in high acid beverage (physchem; pH 3.4) | MIC [7] | MIC [8] | MIC [10] | Compound | concentration required to stabilize beverage for 16 weeks against vegetative yeast, mold and bacteria (bio-indicator mold [1]) | pKa of carboxylic acid group [5] | solubility in pure water [6] | MIC [9] | mold able to grow at highest concentration in solution (bio-indicator mold [11]; 20.0 ppm un-complexed Pimaricin, apple juice beverage pH 3.4) | minimum initial stand alone concentration needed to preserve product for 16 weeks (bio-indicator mold [11]; stand alone)
1 |  |  |  |  |  |  |  |  |  | COC(=O)OC(=O)OC [DMDC, Dimethyl dicarbonate] | at least 250 mg/liter |  |  |  |  | 
2 | 18.4 µg/mL (≈ 27.6 µM) | 5.7 µg/mL (≈ 8.56 µM) | 10.3 µg/mL (≈ 15.5 µM) | 10 µg/mL (≈ 15 µM) | 20 µg/mL (≈ 30 µM) | ~10 ppm | 16.9 µg/mL (≈ 25.4 µM) | > 20 µg/mL | > 20 µg/mL | CC1O[C@@H](O[C@H]2/C=C/C=C/C=C/C=C/C[C@@H](C)OC(=O)/C=C/[C@H]3O[C@@H]3C[C@H](O)C[C@]3(O)C[C@H](O)[C@@H](C(=O)O)[C@H](C2)O3)C(O)C(N)[C@@H]1O (stereo partly drawn) [Pimaricin] |  | ~6.5 | 52 µg/mL (≈ 78.1 µM) | > 20 µg/mL | > 50% | 400 mg pimaricin per liter
